Reference: PubChem BioAssay (NCI)
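Step 1: Grow cells in 96-well plates. Step 2: Expose to compound for 48 hours at 5 concentrations. Step 3: Interpolate endpoints linearly; if unreached, use highest concentration. Here, GI50 denotes the concentration required for 50% inhibition of growth. At the TGI there is no net growth.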

Key:
Assay in all cases: DTP human tumour cell line panel, 48 h
SK-MEL-5 melanoma = test system: SK-MEL-5 melanoma
SK-MEL-28 melanoma = test system: SK-MEL-28 melanoma
RPMI-8226 leukemia = test system: RPMI-8226 leukemia
LOX IMVI melanoma = test system: LOX IMVI melanoma
MOLT-4 leukemia = test system: MOLT-4 leukemia
CAKI-1 renal = test system: CAKI-1 renal
K-562 leukemia = test system: K-562 leukemia
T-47D breast = test system: T-47D breast
OVCAR-5 ovarian = test system: OVCAR-5 ovarian
NCI-H226 lung = test system: NCI-H226 lung
TK-10 renal = test system: TK-10 renal
UO-31 renal = test system: UO-31 renal
SN12C renal = test system: SN12C renal
U251 CNS = test system: U251 CNS
SF-295 CNS = test system: SF-295 CNS
786-0 renal = test system: 786-0 renal
NCI-H460 lung = test system: NCI-H460 lung
ACHN renal = test system: ACHN renal
OVCAR-3 ovarian = test system: OVCAR-3 ovarian
PC-3 prostate = test system: PC-3 prostate
COLO 205 colon = test system: COLO 205 colon
HCC-2998 colon = test system: HCC-2998 colon
M14 melanoma = test system: M14 melanoma
KM12 colon = test system: KM12 colon
SNB-19 CNS = test system: SNB-19 CNS
MALME-3M melanoma = test system: MALME-3M melanoma
SF-268 CNS = test system: SF-268 CNS
HCT-116 colon = test system: HCT-116 colon
CCRF-CEM leukemia = test system: CCRF-CEM leukemia
RXF 393 renal = test system: RXF 393 renal
HOP-92 NSCLC = test system: HOP-92 NSCLC
HT29 colon = test system: HT29 colon
SW-620 colon = test system: SW-620 colon
SR leukemia = test system: SR leukemia
DU-145 prostate = test system: DU-145 prostate
HS 578T breast = test system: HS 578T breast
HOP-62 NSCLC = test system: HOP-62 NSCLC
NCI-H522 lung = test system: NCI-H522 lung
A549 NSCLC = test system: A549 NSCLC
EKVX NSCLC = test system: EKVX NSCLC
OVCAR-8 ovarian = test system: OVCAR-8 ovarian
A498 renal = test system: A498 renal
BT-549 breast = test system: BT-549 breast
NCI/ADR-RES ovarian = test system: NCI/ADR-RES ovarian
OVCAR-4 ovarian = test system: OVCAR-4 ovarian
UACC-62 melanoma = test system: UACC-62 melanoma
SF-539 CNS = test system: SF-539 CNS
MDA-MB-435 = test system: MDA-MB-435
SK-MEL-2 melanoma = test system: SK-MEL-2 melanoma
IGROV1 ovarian = test system: IGROV1 ovarian
HCT-15 colon = test system: HCT-15 colon
SNB-75 CNS = test system: SNB-75 CNS
HL-60(TB) leukemia = test system: HL-60(TB) leukemia
NCI-H23 lung = test system: NCI-H23 lung
MDA-MB-231 breast = test system: MDA-MB-231 breast
MCF7 breast = test system: MCF7 breast
SK-OV-3 ovarian = test system: SK-OV-3 ovarian

C[C@@H]1C[N+]2([O-])[C@H]3C4=CCC[C@@H]4CC[C@H]3[C@@]3(C)OC(=O)CC[C@]34CC[C@H]1[C@@H]42 (some centres undefined)
GI50 (SK-MEL-5 melanoma): > 60 µM
TGI (SK-MEL-5 melanoma): > 60 µM
GI50 (SK-MEL-28 melanoma): > 60 µM
TGI (SK-MEL-28 melanoma): > 60 µM
GI50 (RPMI-8226 leukemia): > 60 µM
TGI (RPMI-8226 leukemia): > 60 µM
GI50 (LOX IMVI melanoma): > 60 µM
TGI (LOX IMVI melanoma): > 60 µM
GI50 (MOLT-4 leukemia): > 60 µM
TGI (MOLT-4 leukemia): > 60 µM
GI50 (CAKI-1 renal): > 60 µM
TGI (CAKI-1 renal): > 60 µM
GI50 (K-562 leukemia): > 60 µM
TGI (K-562 leukemia): > 60 µM
GI50 (T-47D breast): > 60 µM
TGI (T-47D breast): > 60 µM
GI50 (OVCAR-5 ovarian): > 60 µM
TGI (OVCAR-5 ovarian): > 60 µM
GI50 (NCI-H226 lung): > 60 µM
TGI (NCI-H226 lung): > 60 µM
GI50 (TK-10 renal): > 60 µM
TGI (TK-10 renal): > 60 µM
GI50 (UO-31 renal): > 60 µM
TGI (UO-31 renal): > 60 µM
GI50 (SN12C renal): > 60 µM
TGI (SN12C renal): > 60 µM
GI50 (U251 CNS): > 60 µM
TGI (U251 CNS): > 60 µM
GI50 (SF-295 CNS): > 60 µM
TGI (SF-295 CNS): > 60 µM
GI50 (786-0 renal): > 60 µM
TGI (786-0 renal): > 60 µM
GI50 (NCI-H460 lung): > 60 µM
TGI (NCI-H460 lung): > 60 µM
GI50 (ACHN renal): > 60 µM
TGI (ACHN renal): > 60 µM
GI50 (OVCAR-3 ovarian): > 60 µM
TGI (OVCAR-3 ovarian): > 60 µM
GI50 (PC-3 prostate): > 60 µM
TGI (PC-3 prostate): > 60 µM
GI50 (COLO 205 colon): > 60 µM
TGI (COLO 205 colon): > 60 µM
GI50 (HCC-2998 colon): > 60 µM
TGI (HCC-2998 colon): > 60 µM
GI50 (M14 melanoma): > 60 µM
TGI (M14 melanoma): > 60 µM
GI50 (KM12 colon): > 60 µM
TGI (KM12 colon): > 60 µM
GI50 (SNB-19 CNS): > 60 µM
TGI (SNB-19 CNS): > 60 µM
GI50 (MALME-3M melanoma): > 60 µM
TGI (MALME-3M melanoma): > 60 µM
GI50 (SF-268 CNS): > 60 µM
TGI (SF-268 CNS): > 60 µM
GI50 (HCT-116 colon): > 60 µM
TGI (HCT-116 colon): > 60 µM
GI50 (CCRF-CEM leukemia): > 60 µM
TGI (CCRF-CEM leukemia): > 60 µM
GI50 (RXF 393 renal): > 60 µM
TGI (RXF 393 renal): > 60 µM
GI50 (HOP-92 NSCLC): > 60 µM
TGI (HOP-92 NSCLC): > 60 µM
GI50 (HT29 colon): > 60 µM
TGI (HT29 colon): > 60 µM
GI50 (SW-620 colon): > 60 µM
TGI (SW-620 colon): > 60 µM
GI50 (SR leukemia): > 60 µM
TGI (SR leukemia): > 60 µM
GI50 (DU-145 prostate): > 60 µM
TGI (DU-145 prostate): > 60 µM
GI50 (HS 578T breast): > 60 µM
TGI (HS 578T breast): > 60 µM
GI50 (HOP-62 NSCLC): > 60 µM
TGI (HOP-62 NSCLC): > 60 µM
GI50 (NCI-H522 lung): > 60 µM
TGI (NCI-H522 lung): > 60 µM
GI50 (A549 NSCLC): > 60 µM
TGI (A549 NSCLC): > 60 µM
GI50 (EKVX NSCLC): > 60 µM
TGI (EKVX NSCLC): > 60 µM
GI50 (OVCAR-8 ovarian): > 60 µM
TGI (OVCAR-8 ovarian): > 60 µM
GI50 (A498 renal): > 60 µM
TGI (A498 renal): > 60 µM
GI50 (BT-549 breast): > 60 µM
TGI (BT-549 breast): > 60 µM
GI50 (NCI/ADR-RES ovarian): > 60 µM
TGI (NCI/ADR-RES ovarian): > 60 µM
GI50 (OVCAR-4 ovarian): > 60 µM
TGI (OVCAR-4 ovarian): > 60 µM
GI50 (UACC-62 melanoma): > 60 µM
TGI (UACC-62 melanoma): > 60 µM
GI50 (SF-539 CNS): > 60 µM
TGI (SF-539 CNS): > 60 µM
GI50 (MDA-MB-435): > 60 µM
TGI (MDA-MB-435): > 60 µM
GI50 (SK-MEL-2 melanoma): > 60 µM
TGI (SK-MEL-2 melanoma): > 60 µM
GI50 (IGROV1 ovarian): > 60 µM
TGI (IGROV1 ovarian): > 60 µM
GI50 (HCT-15 colon): > 60 µM
TGI (HCT-15 colon): > 60 µM
GI50 (SNB-75 CNS): > 60 µM
TGI (SNB-75 CNS): > 60 µM
GI50 (HL-60(TB) leukemia): > 60 µM
TGI (HL-60(TB) leukemia): > 60 µM
GI50 (NCI-H23 lung): > 60 µM
TGI (NCI-H23 lung): > 60 µM
GI50 (MDA-MB-231 breast): > 60 µM
TGI (MDA-MB-231 breast): > 60 µM
GI50 (MCF7 breast): > 60 µM
TGI (MCF7 breast): > 60 µM
GI50 (SK-OV-3 ovarian): > 60 µM
TGI (SK-OV-3 ovarian): > 60 µM
